Counter-ions that a name gives are not always drawn.
Assays:
[1] = tested on: MTP (microsomal triglyceride transfer protein); assay: MTP activity-lowering activity: liver MTP activity after 2 weeks' dosing of rats; assay type: in vivo; conditions: SD rats, liver homogenate, control group 9.09 ± 1.0
Description: SD rats weighing about 200 g in groups of 6 were given 20 mg or 60 mg of the hydrochloride of the amino acid of the invention in 10 ml of water in 3 divided doses daily for 2 weeks. Thereafter, the liver was excised and homogenized using a homogenizing buffer (50 mM Tris (pH 7.4), 50 mM potassium chloride, 1.5 mM EDTA, leupeptin (5 μg/ml) and 2 mM phenylmethylsulfonyl fluoride) and the homogenate was centrifuged to give a liver homogenate. This liver homogenate was adjusted to a protein concentration of about 2 mg/mL with the same homogenizing buffer and 1 part of deoxycholate solution (0.56%, pH 7.5) was added to 10 parts of the homogenate. The reaction was then carried out at 4° C. for 30 minutes, whereby MTP was liberated from the microsomal fraction. The membrane fraction was then removed by centrifugation to give a supernatant. This supernatant was diluted with Tris buffer (a buffer solution containing 15 mM Tris (pH 7.4), 40 mM NaCl, 1 mM EDTA, 0.02% NaN3) and dialyzed against the same buffer at 4° C. overnight. The dialysate thus obtained was analyzed for MTP activity by the method of J. R. Wetterau [Science, 258, 999 (1992)].

[2] = tested on: HepG2 cells (apo B secretion); assay: Apo B antisecretory activity (1): apo B secreted into medium by HepG2 cells, ELISA; assay type: cell-based, human; conditions: for Apo B secretions (μg/well): 24 hours' culture, control group 9.92 ± 0.80
Description: HepG2 cells (100×10^4 cells/dish) were sown on 3.5 cm dishes and precultured using 1 ml DME (containing 10% FCS) medium per dish. Following this preculture, the cells were washed with DME medium twice, added to the test medium, and cultured at 37° C. under 95% air-5% carbon dioxide for 24 hours. The test medium was prepared by dissolving cycloalliin in dimethyl sulfoxide and diluted with DME medium containing 1% ESA and 0.5 mM oleic acid to a final cycloalliin concentration of 10^−6 M or 10^−4 M.
After 24 hours' culture, the medium was recovered and the amount of apo B secreted into the medium was determined by ELISA. Thus, anti-human apo B antibody (a 100-fold dilution) was distributed into a 96-well ELISA plate, 100 μL per well, and incubated at 37° C. for 2 hours. Then, 100 μL/well of Block Ace was added and the plate was further incubated at 37° C. for 2 hours. The wells were washed with PBS-Tween×3 and 100 μL each of apo B standard solution and HepG2 culture were added, followed by further incubation at 4° C. for 16 hours. After the wells were washed with PBS-Tween×3, 100 μL/well of anti-human apo B marker antibody (a 200-fold dilution) was added and the plate was incubated at 37° C. for 2 hours. The wells were washed with PBS-Tween×3, then 100 μL/well of the substrate solution was added, and the plate was incubated at 25° C. for 30 minutes. The reaction was stopped by adding 50 μL of 4.5 M H2SO4 and the absorbance at 482 nm was measured to estimate the amount of apo B secretion.

[3] = tested on: HepG2 cells (TG secretion); assay: TG antisecretory activity: secreted [14C]-labeled triglyceride in HepG2 medium; assay type: cell-based; conditions: HepG2, 10 μM, 24 hours of culture; control group 161.2 ± 2.2
Description: HepG2 cells were cultured in DME medium supplemented with 1% BSA and 0.5 mM oleic acid for 24 hours. Then, the medium was changed to 1% BSA-DME containing 10 μM of the amino acid of the invention and simultaneously 0.5 μci of [^14C] acetic acid was added. The cells and medium were recovered after 24 hours of culture. The recovered cells were homogenized by sonication, and after quantitation of protein, the amount of secreted triglyceride (TG) was determined from the amount of labeled lipid in the medium.

[4] = 60 mg daily in 3 divided doses for 2 weeks

C[C@H]1C[S@+]([O-])C[C@@H](C(=O)O)N1 [Cycloalliin HCl, (1S, 3R, 5S)-5-methyl-1,4-thiazane-3-carboxylic acid 1-oxide]
MTP activity (%) ([1]; 20 mg daily in 3 divided doses for 2 weeks): 6.12 ± 0.7 %
MTP activity (%) [1, 4]: 4.92 ± 1.0 %

C[C@H]1C[S@+]([O-])C[C@@H](C(=O)O)N1 [Cycloalliin, (1S, 3R, 5S)-5-methyl-1,4-thiazane-3-carboxylic acid 1-oxide]
Apo B secretions (μg/well) ([2]; HepG2, 10^−4 M): 7.67 ± 1.31 μg/well
Effect on apo B secretion (in words) ([2]; HepG2, 10^−6 M or 10^−4 M, 24 hours, vs control group): significant suppression of apo B secretion
Apo B secretions (μg/well) ([2]; HepG2, 10^−6 M): 7.54 ± 1.13 μg/well

S-methyl-L-cysteine sulfoxide [S-methyl-L-cysteine sulfoxide HCl]
MTP activity (%) [1, 4]: 5.43 ± 0.6 %

S-n-propyl-L-cysteine sulfoxide
TG secretions ([^14C] dpm × 10^−2/mg protein) [3]: 105.8 ± 18.9 [^14C] dpm × 10^−2/mg protein
